From BindingDB's records for doi:10.3109/14756366.2012.742517 (Seoul National University, 2014)

Molecular target: T1, Pancreatic triacylglycerol lipase (Sus scrofa, UniProt P00591)
T1 sequence (P00591 whole entry): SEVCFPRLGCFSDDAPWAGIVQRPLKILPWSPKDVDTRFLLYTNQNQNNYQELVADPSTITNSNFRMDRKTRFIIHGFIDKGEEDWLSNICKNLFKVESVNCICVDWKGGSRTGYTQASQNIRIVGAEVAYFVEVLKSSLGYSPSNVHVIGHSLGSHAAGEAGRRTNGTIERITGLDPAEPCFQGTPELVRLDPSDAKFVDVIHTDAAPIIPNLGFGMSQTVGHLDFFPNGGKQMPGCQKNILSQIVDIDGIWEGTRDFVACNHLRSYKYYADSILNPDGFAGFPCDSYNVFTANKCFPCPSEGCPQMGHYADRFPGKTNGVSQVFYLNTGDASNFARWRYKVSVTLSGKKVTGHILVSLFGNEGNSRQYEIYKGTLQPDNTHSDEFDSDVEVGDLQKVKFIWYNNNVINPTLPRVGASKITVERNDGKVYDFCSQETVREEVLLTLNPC
Test: In Vitro Pancreatic Lipase Assay
Settings: pH 7.4; 37 °C
Protocol: The mixedsolution that composed of […] of 0.1mM 4-MU oleate, […] of the above-mentioned buffer and […] of test samples was prepared before adding lipase. The enzymatic reaction was started by adding 0.05mL of 1 U/mL pancreatic lipase and incubation was carried out for 20 min at 37 °C. The amount of 4-methylumbelliferon released by the enzyme was monitored at an emission of 450 nm and excitation wavelength of 320 nm using a fluorescence spectrophotometer.

Compared with `O=C(/C=C/c1ccc(O)cc1)OCCc1ccc(O)cc1`, `COc1cc(/C=C/C(=O)OCCc2ccc(O)cc2)ccc1O` [p-hydroxyphenethyl trans-ferulate] is higher in IC50: 34.8 µM for the first, > 50 µM for the second.

`Oc1cc(O)cc(CCc2ccccc2O)c1` [2',3,5-Trihydroxybibenzyl (2)] and `COc1cc(O)cc(CCc2ccccc2O)c1` [2-(3-hydroxy-5-methoxyphenethyl)phenol] are within 1.5-fold of each other in IC50: 29.2 µM for the first, 30.1 µM for the second.

First: COc1cc(O)c2c(c1)CCc1cc(O)ccc1-2 [2,5-Dihydroxy-7-methoxy-9,10-dihydrophenanthrene (14)]
Second: COc1cc(O)cc2c1-c1c(O)cccc1CC2 [Hircinol (13)]
The IC50 of the first is 1.6-fold lower: 25.1 µM for the first, 40.6 µM for the second. The first is the more potent here.

Compared with `COc1c(O)cccc1CCc1cc(O)cc(O)c1` [3,3',5-Trihydroxy-2'-methoxybibenzyl (3)], `COc1cc(CCc2cc(O)cc(O)c2)ccc1O` [Tristin (1)] is 1.5-fold higher in IC50: 8.77 µM for the first, 13.5 µM for the second.

First: COc1cc(CCc2ccccc2O)cc(O)c1OC [3,4-Dimethoxy-2',5-dihydroxybibenzyl (9)]
Second: COc1cc(CCc2ccccc2O)cc(OC)c1OC [Batatasin V (10)]
The IC50 of the first is higher: > 50 µM for the first, 45.7 µM for the second. The second is the more potent here.

Compared with `COc1cc(CCc2ccccc2O)cc(OC)c1` [3,5-Dimethoxy-2'hydroxybibenzyl (7)], `COc1cc(CCc2ccccc2)cc(OC)c1` [3,5-Dimethoxybibenzyl (8)] is higher in IC50: 44.1 µM for the first, > 50 µM for the second.

Compared with `COc1cc2c(ccc3cc(O)cc(OC)c32)cc1O` [3,5-Dimethoxy-2,7-phenanthrenediol (11)], `COc1cc(OC)c2c(ccc3cc(OC)c(O)cc32)c1` [Batatasin I (12)] is higher in IC50: 12.7 µM for the first, > 50 µM for the second. The first is the more potent here.

`COc1cc(O)cc2c1OCCc1ccccc1-2` [9,10-Dihydro-4-methoxy-dibenzoxepin-2-ol (16)] and `Oc1cc(O)c2c(c1)-c1ccccc1CCO2` [9,10-Dihydro-dibenzoxepin-2,4-diol (15)] cannot be ordered by IC50: > 50 µM for the first, > 50 µM for the second.

First: O=C(/C=C/C=C/c1ccc(O)cc1)/C=C/c1ccc(O)cc1 [(1E,4E,6E)-1,7-bis(4-hydroxyphenyl)-1,4,6-heptatrien-3-one (19)]
Second: O=C(/C=C/C=C/c1ccc(O)cc1)CCc1ccc(O)cc1 [(4E,6E)-1,7-bis(4-hydroxyphenyl)-4,6-heptadien-3-one (20)]
The IC50 of the first is 1.8-fold higher: 16.4 µM for the first, 9.12 µM for the second.

`COc1cc(CC[C@@H](O)C[C@H](O)CCc2ccc(O)c(OC)c2)ccc1O` [(3R,5R)-1,7-bis(4-hydroxy-3-methoxyphenyl)-3,5-heptanediol] and `Oc1ccc(CC[C@@H](O)C[C@H](O)CCc2ccc(O)cc2)cc1` [(3R,5R)-3,5-dihydroxy-1,7-bis(4-hydroxyphenyl)-3,5-heptanediol (22)] cannot be ordered by IC50: > 50 µM for the first, > 50 µM for the second.

First: COc1cc(/C=C/C=C/C(=O)CCc2ccc(O)cc2)ccc1O [(4E,6E)-7-(4-hydroxy-3-methoxyphenyl)-1-(4-hydroxyphenyl)-4,6-heptadien-3-one (21)]
Second: COc1cc(O)cc(CCc2cccc(O)c2)c1 [Batatasin III (4)]
The IC50 of the first is 2.9-fold lower: 11.1 µM for the first, 32.3 µM for the second. The first is the more potent here.

First: O=C(/C=C/c1ccc(O)cc1)OCCc1ccc(O)cc1
Second: O=C(/C=C/C=C/c1ccc(O)cc1)CCc1ccc(O)cc1 [(4E,6E)-1,7-bis(4-hydroxyphenyl)-4,6-heptadien-3-one (20)]
The Ki of the first is 3.9-fold higher: 7.49 µM for the first, 1.92 µM for the second.

`Oc1cc(O)cc(CCc2ccccc2O)c1` [2',3,5-Trihydroxybibenzyl (2)] and `COc1cc(O)cc(CCc2ccccc2O)c1` [2-(3-hydroxy-5-methoxyphenethyl)phenol] are within 1.5-fold of each other in Ki: 6.45 µM for the first, 6.28 µM for the second.

Compared with `COc1cc(O)c2c(c1)CCc1cc(O)ccc1-2` [2,5-Dihydroxy-7-methoxy-9,10-dihydrophenanthrene (14)], `COc1cc(O)cc2c1-c1c(O)cccc1CC2` [Hircinol (13)] is 1.7-fold higher in Ki: 4.96 µM for the first, 8.57 µM for the second.

Compared with `COc1c(O)cccc1CCc1cc(O)cc(O)c1` [3,3',5-Trihydroxy-2'-methoxybibenzyl (3)], `COc1cc(CCc2cc(O)cc(O)c2)ccc1O` [Tristin (1)] is 1.5-fold higher in Ki: 1.82 µM for the first, 2.75 µM for the second.

`COc1cc(CCc2ccccc2O)cc(OC)c1` [3,5-Dimethoxy-2'hydroxybibenzyl (7)] and `COc1cc(CCc2ccccc2O)cc(OC)c1OC` [Batatasin V (10)] are within 1.5-fold of each other in Ki: 9.28 µM for the first, 9.66 µM for the second.

Compared with `COc1cc2c(ccc3cc(O)cc(OC)c32)cc1O` [3,5-Dimethoxy-2,7-phenanthrenediol (11)], `COc1cc(O)cc(CCc2cccc(O)c2)c1` [Batatasin III (4)] is 2.5-fold higher in Ki: 2.67 µM for the first, 6.79 µM for the second.

Going from `O=C(/C=C/C=C/c1ccc(O)cc1)/C=C/c1ccc(O)cc1` [(1E,4E,6E)-1,7-bis(4-hydroxyphenyl)-1,4,6-heptatrien-3-one (19)] to `COc1cc(/C=C/C=C/C(=O)CCc2ccc(O)cc2)ccc1O` [(4E,6E)-7-(4-hydroxy-3-methoxyphenyl)-1-(4-hydroxyphenyl)-4,6-heptadien-3-one (21)], the Ki falls from 3.34 µM to 2.17 µM (1.5-fold).
